In one assay the target is T1, SmSOD (Streptococcus mutans serotype c, UniProt P09738).
T1 construct: His-tail; made in house; host or cells: Escherichia coli BL21(DE3), vector vSmSOD (pET-22b(+)-derived)
Nature of the assay: SOD activity assay (inhibition of cytochrome c reduction, xanthine/xanthine oxidase method) with SmSOD. The assay is classed as biochemical. Particulars: for remaining activity at 50 µM: 50 µM compound; for remaining activity at 50 µM / remaining activity at 100 µM / IC50: ALS-31 derivatives, Table 2; for remaining activity at 50 µM / remaining activity at 100 µM: read-out: Residual SOD Activity (%) in the Presence of [Compound]; for remaining activity at 100 µM: 100 µM compound; for IC50: SmSOD activity, read-out: IC50; for effect on SmSOD activity (in words): screening concentrations or inhibition profile up to 300 µM.

The subject of assay [1] is Streptococcus mutans ATCC-700610. The assay is described as follows: Crystal violet staining biofilm biomass assay. The note with it: Streptococcus mutans, ATCC700610, 24 h, read-out: inhibition of biofilm biomass formation. The assay is classed as cell-based. How it is done:
(§1) The bacterial strain used for antimicrobial assays was Streptococcus mutans ATCC-700610. The strain was stored in 15% (v/v) glycerol stocks at −80 °C. Before each experiment, cells were subcultured from the stocks into Trypticase Soy Agar (TSA, cat. PA-254051.06) with 5% Sheep Blood (Becton Dickinson, Sparks, NV, USA) plates at 37 °C in 5% CO2 atmosphere for 48 h.
The crystal violet (CV) staining method was used to measure biofilm biomass formed in flat-bottomed 96-well microplates in the presence of ALS-31 or ALS-31-9, as described by Stepanović et al., with some modifications. A bacterial suspension of approximately 1.5 × 10^6 CFU/mL in BHI supplemented with 1% (w/v) glucose was prepared, and 100-µL aliquots of this suspension were incubated with 100 µL of serial dilutions of each compound. The microplate was incubated at 37 °C for 24 h, after which the non-adherent cells were gently aspirated and the wells gently rinsed with PBS (Sigma–Aldrich). The adhered biofilm was dried at 60 °C for 30 min and subsequently stained with 0.1% (w/v) crystal violet solution for 30 min. After washing with PBS and solubilization with absolute ethanol to release the dye from the biofilm, the plate was read at 570 nm in a spectrophotometer. The absorbance recorded was related to the amount of biofilm produced. The reduction in the mass of the biofilm was expressed as a percentage by using the formula [(Ac-At)/Ac] × 100, where Ac is the OD570 for the control wells and At is the OD570 in the presence of the tested compound.

The test system is the same in assay [2]. The assay is described as follows: Broth micro-dilution antibacterial assay (planktonic growth). The class given is cell-based. The note with it: 24 h. The procedure: as §1
The antibacterial activity of compounds ALS-31 or ALS-31-9 was assayed in S. mutans cultures by a standard broth micro-dilution method in 96-well polystyrene plates using Brain-Heart Infusion broth (BHI, cat. 255003, Becton Dickinson, Sparks, NV, USA). One hundred microliters of bacterial suspension adjusted to approximately 1.5 × 10^6 CFU/mL were incubated with 100 µL of serial dilutions of the compounds dissolved in final 1.0% (v/v) DMSO as a vehicle. The plates were incubated at 37 °C in 5% CO2 atmosphere for 24 h under shaking (300 rpm). The medium turbidity was measured by a spectrophotometer at 595 nm (Bio-Rad Laboratories Inc., Hercules, CA, USA). Compound-free wells in 1.0% (v/v) DMSO were used as controls (100% planktonic growth), and antibacterial activity was expressed as a percentage of residual growth. Chlorhexidine acetate (CHX, cat. 51094, Sigma-Aldrich, St. Louis, MO, USA) solution (1 mg/mL) was prepared and included as control for the assay of S. mutans’ susceptibility (MIC referred to [51]). Each compound was tested in triplicate; each experiment was performed twice.
On the technique in general: In broth dilution the organism is exposed to a series of concentrations in liquid medium.

T1 sequence (P09738 2-203): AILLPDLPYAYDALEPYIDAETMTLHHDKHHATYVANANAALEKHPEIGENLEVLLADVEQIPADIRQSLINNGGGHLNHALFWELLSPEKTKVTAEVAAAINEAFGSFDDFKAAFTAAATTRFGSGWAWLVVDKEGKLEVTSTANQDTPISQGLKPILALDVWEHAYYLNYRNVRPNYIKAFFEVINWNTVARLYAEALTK
Description for SmSOD: Purified recombinant forms of SmSOD and StSOD were obtained through a heterologous expression system constituted by the Escherichia coli BL21(DE3) strain transformed with appropriate expression vectors, vSmSOD [11] or vStSOD [12]. These pET-22b(+)- or pET-28b(+)-derived plasmids led to the production of recombinant forms of SmSOD or StSOD, respectively fused to a His-tail, useful for their one-step purification by affinity chromatography, as previously described [11, 12]. The improvement of Mn uptake by SmSOD was realised as previously described [11, 12, 13]. The resulting metal (Fe and Mn) content in the cambialistic enzyme was determined by graphite furnace atomic absorption spectrometry with a Shimadzu ACS-6100 auto sampler [46]. Fe-SOD from Escherichia coli (cat. SRP6107) and the Cu/Zn-SOD from bovine erythrocytes (cat. 574594) were purchased from Sigma–Aldrich. A recombinant form of the eukaryal Mn–SOD from rat mitochondria was prepared as previously described [19]. Protein concentration was determined by the Bradford method, using bovine serum albumin as standard [47]. […] One unit of SOD activity was defined as the amount of enzyme that caused 50% inhibition of cytochrome c reduction.

On to `CSCCC(NC(=O)COc1ccc2c3c(c(=O)oc2c1)CCC3)C(=O)O` (stereo not drawn) [ALS-31-1], for which, at SmSOD, the remaining activity at 50 µM was determined as 104% and the remaining activity at 100 µM amounted to 97.2%.

Regarding `O=C(O)CCC(NC(=O)COc1ccc2c3c(c(=O)oc2c1)CCC3)C(=O)O` (stereo not drawn) [ALS-31-2], on SmSOD, the remaining activity at 50 µM was found to be 89.8% and the remaining activity at 100 µM was found to be 113%.

On to `CSCCC(NC(=O)CCNC(=O)COc1ccc2c3c(c(=O)oc2c1)CCC3)C(=O)O` (stereo not drawn) [ALS-31-3], for which, on SmSOD, the remaining activity at 50 µM came to 78.8% and the remaining activity at 100 µM amounted to 104%.

`CSCCC(NC(=O)COc1cc(C)cc2oc(=O)c3c(c12)CCC3)C(=O)NCCC(=O)O` (stereo not drawn) [ALS-31-4]: at SmSOD, the remaining activity at 50 µM was found to be 92.6% and the remaining activity at 100 µM was found to be 96.8%.

Turning to `CC(NC(=O)COc1ccc2c3c(c(=O)oc2c1)CCCC3)C(=O)NCC(=O)NCC(=O)O` (stereo not drawn) [ALS-31-5], at SmSOD, the remaining activity at 50 µM worked out at 93.4% and the remaining activity at 100 µM came to 99.6%.

As a reminder, the IC50 is the concentration at which inhibition is half-maximal. Consider `O=C(O)CCCNC(=O)COc1ccc2c3c(c(=O)oc2c1)CCCC3` [ALS-31-6], for which, on SmSOD, the remaining activity at 50 µM is 75.1%, the remaining activity at 100 µM was 78%, the concentration for half-maximal inhibition (IC50) is 127 ± 12 µM and the “effect on SmSOD activity (in words)” value is “dose-dependent reduction”.

On to `O=C(O)CCNC(=O)COc1ccc2c3c(c(=O)oc2c1)CCCC3` [ALS-31-7], for which, on SmSOD, the remaining activity at 50 µM was found to be 95.4% and the remaining activity at 100 µM was found to be 125%.

Consider `CSCCC(NC(=O)CCNC(=O)COc1cc2oc(=O)c3c(c2cc1C)CCCC3)C(=O)O` (stereo not drawn) [ALS-31-8], for which, at SmSOD, the remaining activity at 50 µM was 69.2%, the remaining activity at 100 µM came to 76.9%, the IC50 turned out to be 292 ± 30 µM and the “effect on SmSOD activity (in words)” value was “dose-dependent reduction”.

As usually defined, the inhibition is the percentage by which the read-out fell short of the control. `CCCC(NC(=O)COc1ccc2c3c(c(=O)oc2c1)CCCC3)C(=O)NCCCC(=O)O` (stereo not drawn) [ALS-31-9]: the inhibition at 13.5 µM in assay [1] (13.5 µM) is 29.4%. In addition, the inhibition at 27.3 µM in assay [1] (27.3 µM) was 62.1%. At SmSOD, the remaining activity at 50 µM was found to be 65.3%, the remaining activity at 100 µM came out at 50.3%, the 50% inhibitory concentration (IC50) came to 64 ± 15 µM and the “effect on SmSOD activity (in words)” value is reported as “dose-dependent reduction”. Also, the “improved inhibition power on SmSOD compared to lead ALS-31” value at SmSOD (ratio of IC50 values) is 2.5 fold. Also, the “percentage of planktonic growth of S. mutans” value in assay [2] (54 µM) is on record as 79.0 ± 4.6%. Further, the “percentage of planktonic growth of S. mutans” value in assay [2] (108 µM) stood at 39.5 ± 2.1%. Further, the “planktonic growth of S. mutans compared with 108 µM” value in assay [2] (216 µM) was “no further reduction”. Moreover, the “concentration up to which no antimicrobial activity is displayed in S. mutans suspensions” value in assay [2] is listed as at most 25 µM.

With `CSCCC(NC(=O)COc1ccc2c3c(c(=O)oc2c1)CCCC3)C(=O)O` (stereo not drawn) [ALS-31-10], at SmSOD, the remaining activity at 50 µM amounted to 75%, the remaining activity at 100 µM was found to be 68.9%, the IC50 amounted to 139 ± 8 µM and the “effect on SmSOD activity (in words)” value is on record as “dose-dependent reduction”.

Consider `CCCC(NC(=O)COc1ccc2c3c(c(=O)oc2c1)CCCC3)C(=O)O` (stereo not drawn) [ALS-31-11], for which, on SmSOD, the remaining activity at 50 µM was 83.7% and the remaining activity at 100 µM was determined as 125%.

Consider `O=C(O)CNC(=O)CNC(=O)COc1ccc2c3c(c(=O)oc2c1)CCCC3` [ALS-31-12], for which, at SmSOD, the remaining activity at 50 µM was 75.6% and the remaining activity at 100 µM was found to be 125%.

The values above are taken from PMC9029323, “In Silico Identification of Novel Inhibitors Targeting the Homodimeric Interface of Superoxide Dismutase from the Dental Pathogen Streptococcus mutans” (Antioxidants, 2022).
